{
  "source": "patent US20250221405A1",
  "about": "“ROOT NODULE FORMATION-PROMOTING COMPOSITION, AND ROOT HAIR FORMATION-PROMOTING COMPOSITION” (KANEKA CORPORATION, priority 2022, published 2025)",
  "key": {"[1]": {"system": "soybeans (Fukuyutaka)", "assay": "Experimental Example 1: seed coating, number of root nodules", "type": "in vivo, soybean", "conditions": "Table 1-1", "protocol": "A solution of SF, SL, or RL dissolved in water (a composition for promoting root nodule formation) as the following amount in each of the following treatments was prepared. The seeds of soybeans (Fukuyutaka) were coated using the solution in an amount of 800 μL/100 g seed to obtain coated seeds.\nA 9 cm poly pot was filled with culture soil and seeded with three coated seeds in each pot.\nAfter seeding, the coated seeds were cultivated in a greenhouse set at 28° C. during the day (14h) and 18° C. at night (10h).\nSeven days after the seeding, the soybeans in each pot were thinned to one plant, and each pot was irrigated with 4.3 ml of a mixture of rhizobium materials (rhizobium and azospirillum) mixed with water at a proportion of 10 g/L.\nTwenty-one days after the irrigation, the roots were washed with water so as not to remove root nodules, the culture soil was removed, and then, the root nodules formed on the roots were collected.\nAfter the seeding, each pot was fertilized with ½ Hoagland solution once a week. In addition, experiments were conducted on eight pots (eight plants) in each treatment.\nA plurality of experiments were conducted by changing the type of the composition for promoting root nodule formation and the like. Tables 1-1 and 1-2 show the date of seeding, the date of irrigating, the date of investigating the number of root nodules, the amount of SF, SL, or RL in the composition for promoting root nodule formation, and the investigation result of the number of root nodules. Note that the number of root nodules is indicated by a relative value with Tl taken as 100, with a numerical value in parentheses indicating the average number of root nodules actually measured (pieces/plant)."}, "[2]": {"system": "Japanese mustard spinach (Haru no Senbatsu)", "assay": "Experimental Example 6: SF in agar medium, microscopic observation of root hair", "type": "in vivo", "parameters": "key: those with a significant root hair increase observed were evaluated as AA; those with a root hair increase observed were evaluated as BB; those with no root hair increase observed were evaluated as CC; those with an overall or partial root hair decrease observed were evaluated as DD", "conditions": "Table 10, eight days after seeding", "protocol": "An observation tank (a composition for promoting root hair formation) formed by adding 1% SF aqueous solution to ½ MS agar medium (0.8% agar) so as to obtain the following dilution factor was prepared in an acrylic tank. Japanese mustard spinach (Haru no Senbatsu) was seeded near the surface of the observation tank.\nAfter seeding, the Japanese mustard spinach was cultivated in an incubator set in a light period (6:00-18:00, temperature 26° C., illuminance 120 μmol/m^2·s) and a dark period (18:00-6:00, temperature 18° C.).\nEight days after the seeding, the amount of root hair at a point of 1 cm from the tip of the roots was observed under a microscope (microscopic observation). In the T1 (Control), ½ MS agar medium without mixing 1% SF aqueous solution in the medium was used as the observation tank.\nAs a result of the observation, compared with the T1, those with a significant root hair increase observed were evaluated as AA, those with a root hair increase observed were evaluated as BB, those with no root hair increase observed were evaluated as CC, and those with an overall or partial root hair decrease observed were evaluated as DD.\nA plurality of experiments were conducted by changing the date of seeding, the date of observation, and the type of the composition for promoting root hair formation and the like. […]"}, "[3]": {"conditions": "seed coating 0.1 g/t seed (diluted 80000 times), 21 days after rhizobium irrigation"}, "[4]": {"conditions": "seed coating 1 g/t seed (diluted 8000 times)"}, "[5]": {"conditions": "seed coating 5 g/t seed (diluted 1600 times)"}, "[6]": {"conditions": "seed coating 10 g/t seed (diluted 800 times)"}, "[7]": {"conditions": "seed coating 25 g/t seed (diluted 320 times)"}, "[8]": {"conditions": "seed coating 50 g/t seed (diluted 160 times)"}},
  "data": [
    {"substance": "surfactin Na [SF]", "values": [
      {"measurement": "Number of Root Nodules, average number actually measured", "setting": "[1]; [3]", "result": 15.4, "unit": "pieces/plant"},
      {"measurement": "Number of Root Nodules, relative value with T1 taken as 100", "setting": "[1]; [3]", "result": 105},
      {"measurement": "Number of Root Nodules, average number actually measured", "setting": "[1]; [4]", "result": 16.6, "unit": "pieces/plant"},
      {"measurement": "Number of Root Nodules, relative value with T1 taken as 100", "setting": "[1]; [4]", "result": 114},
      {"measurement": "Number of Root Nodules, average number actually measured", "setting": "[1]; [5]", "result": 16.6, "unit": "pieces/plant"},
      {"measurement": "Number of Root Nodules, relative value with T1 taken as 100", "setting": "[1]; [5]", "result": 114},
      {"measurement": "Number of Root Nodules, average number actually measured", "setting": "[1]; [6]", "result": 15.4, "unit": "pieces/plant"},
      {"measurement": "Number of Root Nodules, relative value with T1 taken as 100", "setting": "[1]; [6]", "result": 105},
      {"measurement": "Number of Root Nodules, average number actually measured", "setting": "[1]; [7]", "result": 16.8, "unit": "pieces/plant"},
      {"measurement": "Number of Root Nodules, relative value with T1 taken as 100", "setting": "[1]; [7]", "result": 115},
      {"measurement": "Number of Root Nodules, average number actually measured", "setting": "[1]; [8]", "result": 17.3, "unit": "pieces/plant"},
      {"measurement": "Number of Root Nodules, relative value with T1 taken as 100", "setting": "[1]; [8]", "result": 118},
      {"measurement": "Observation Result (root hair)", "setting": "[2]; agar medium with SF diluted 5000 times", "result": "AA"},
      {"measurement": "Observation Result (root hair)", "setting": "[2]; agar medium with SF diluted 10000 times", "result": "BB"}
    ]}
  ]
}
